Assay results as given in patent US11529350B2, “Tyrosine kinase non-receptor 1 (TNK1) inhibitors and uses thereof” (Sumitomo Pharma Oncology, Inc., priority 2019, dated 2022).

How the values were obtained:
[1] = tested on: phospho-STAT5 in L540 cells; assay: In vitro pSTAT5 assay (ELISA) in L540 cells; type: cell-based; conditions: Homo sapiens, L-540, 24 hours, normalized to cell viability, read-out: P-STAT5 Assay IC50
Description: The L540 cell line harbors a truncating mutation in the C-terminal regulatory region of the protein. As a consequence, TNK1 in L540 cells is constitutively active in phosphorylating key proteins, including STAT5. In TNK1 wild-type conditions (e.g., K562 CML cells), STAT5 phosphorylation is achieved in a TNK1-independent fashion. As such, reductions in phospho-STAT5 signal specific to the L540 cells are a good readout of TNK1 inhibitor function.
Methods: The in vitro pSTAT5 assay was performed with STAT5 AB (pY964/699) SimpleStep ELISA Kit (Abcam No. ab176656) according to the manufacturer's protocol. Briefly, L540 cells were grown in RPMI1640 media under standard culture conditions (10% FBS with penicillin/streptomycin). To assess test compound effects, cells were plated in 96 well plates (250,000 cells/mL) and allowed to grow overnight. Cells were subsequently treated with varying concentrations of test compound for 24 hours, before being harvested and interrogated with the STAT5 AB (pY964/699) SimpleStep ELISA Kit according to the manufacturer's protocol. Phospho-STAT5 signal was normalized to cell viability, as assessed by the CellTiter-Glo assay (Promega, Cat. No. G7570) on treated cells. TNK1 inhibitor IC50s were determined using Graphpad Prism software on normalized phospho-STAT5 measurements.

[2] = biological target: T1, TNK1 (Homo sapiens, UniProt Q13470); assay: RBC HotSpot Kinase Assay; type: biochemical; parameters: purchased Reaction Biology Corp., Malvern, Pa; conditions: ATP 10 μM
T1 sequence (Q13470 1-666): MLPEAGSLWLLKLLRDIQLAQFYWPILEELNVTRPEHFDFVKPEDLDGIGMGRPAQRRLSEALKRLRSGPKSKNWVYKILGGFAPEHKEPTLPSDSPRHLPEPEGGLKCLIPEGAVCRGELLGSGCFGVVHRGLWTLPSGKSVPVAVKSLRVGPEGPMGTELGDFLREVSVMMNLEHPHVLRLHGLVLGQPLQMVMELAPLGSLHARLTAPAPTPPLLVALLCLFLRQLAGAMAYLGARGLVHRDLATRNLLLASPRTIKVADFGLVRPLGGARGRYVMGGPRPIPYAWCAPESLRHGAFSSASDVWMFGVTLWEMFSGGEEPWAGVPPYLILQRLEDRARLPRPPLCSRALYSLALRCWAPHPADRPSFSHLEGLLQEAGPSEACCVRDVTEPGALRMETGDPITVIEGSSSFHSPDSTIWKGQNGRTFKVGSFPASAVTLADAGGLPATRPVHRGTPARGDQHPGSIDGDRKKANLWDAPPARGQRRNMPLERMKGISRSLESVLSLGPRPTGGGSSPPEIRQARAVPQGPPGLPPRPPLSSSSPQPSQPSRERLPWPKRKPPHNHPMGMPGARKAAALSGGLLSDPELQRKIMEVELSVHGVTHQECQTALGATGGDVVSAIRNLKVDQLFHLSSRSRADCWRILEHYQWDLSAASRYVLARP
Description: The RBC HotSpot Kinase assay (Reaction Biology Corp., Malvern, Pa.) was used to evaluate the ability of test compounds to modulate (e.g., inhibit) the enzymatic activity of human TNK1 (UniProt Accession No. Q13470) in the following reaction:
Reagent: Base Reaction buffer; 20 mM Hepes (pH 7.5), 10 mM MgCl2, 1 mM EGTA, 0.02% Brij35, 0.02 mg/ml BSA, 0.1 mM Na3VO4, 2 mM DTT, 1% DMSO. Required cofactors were added individually to each kinase reaction.
Compound handling: Test compounds were dissolved in 100% DMSO to specific concentration. The serial dilution was conducted by Integra Viaflo Assist in DMSO.
1. Prepared substrate (peptide substrate, poly[Glu:Tyr] (4:1), 0.2 mg/ml; ATP 10 μM) in freshly prepared Reaction Buffer;
2. Delivered any required cofactors to the substrate solution;
3. Delivered kinase (TNK1) into the substrate solution and gently mixed;
4. Delivered compounds in 100% DMSO into the kinase reaction mixture by Acoustic technology (Echo550; nanoliter range), incubated for 20 minutes at room temperature;
5. Delivered ^33P-ATP (specific activity 10 μCi/μl) into the reaction mixture to initiate the reaction;
6. Incubated for 2 hours at room temperature;
7. Detected radioactivity by filter-binding method;
8. Kinase activity data were expressed as the percent remaining kinase activity in test samples compared to vehicle (dimethyl sulfoxide) reactions. IC50 values and curve fits were obtained using Prism (GraphPad Software).

[3] = tested on: pSTAT5 in L540 xenograft tumors; assay: pSTAT5 assay in L540 xenograft tumors (ELISA); type: in vivo, mouse; conditions: 10 mg/kg and 25 mg/kg treated arms
Description: Effects of test compounds on phosphorylation of signal transducer and activator of transcription 5 (STAT5) were determined in L540 xenograft tumors.
Methods: Each treatment group included 10 NOD SCID mice. Each mouse was injected with 1×10^7 L540 cells (86% viable at the time of injection), and treated with a single dose of test compound (10 mg/kg or 25 mg/kg) 10 days post L540 cell injection. Tumors were collected 24 hours post treatment, snap frozen, and kept at −80° C. for 24 hours post-harvest. Phosphorylated STAT5 (pSTAT5) levels were measured in the lysates using the STAT5 AB pY694/699 ELISA Kit (Abcam, Cambridge, UK, ab176656). The standard Abcam ELISA protocol was followed, except for 10× more protein than what Abcam recommends was used.

[4] = tested on: L540 xenografts; assay: In vivo efficacy study in subcutaneous L540 Hodgkin's lymphoma CDX model; conditions: for tumor growth inhibition: oral gavage daily for 21 days
Description: An efficacy study was performed using Example No. 13 in a L540 CDX mouse model. Animals were NOD-SCID (#394) female mice 6-8 weeks of age from Charles River Laboratories (CRL). Example No. 13 was formulated weekly using Tween 80:Ethanol:PEG400:Water (2:10:30:58 v/v) as a vehicle. There were four treatment groups (n=10, 40 animals in total): a vehicle/control group, a group treated with 10 mg/kg Example No. 13, a group treated with 25 mg/kg Example No. 13 and a group treated with 50 mg/kg Example No. 13. When the average tumor volume reached 80-120 mm^3, animals were randomized and dosed daily for 21 days via oral gavage, 10 ml/kg dose volume. […] No tissues were collected. IDEXX pathogen test was performed prior to the cell culture; Corynebacterium bovis, Corynebacterium sp. (HAC2), EBV, HCMV, Hepatitis B, Hepatitis C, HIV1, HIV2, HPV16, HPV18, HTLV1, HTLV2, LDEV, and Mycoplasma sp. were tested, and all results were negative. Tumor volume measurements are provided as mean absolute tumor volume +/−SEM.

IC50 [2] [nM] | Structure (SMILES) | IC50 [1] [nM] | further results
< 5 | CN1CCN(c2ccc(Nc3ncc(Cl)c(Nc4cccnc4N4CCCC4=O)n3)cc2)CC1 [compound 1, 1-(3-((5-chloro-2-((4-(4-methylpiperazin-1-yl)phenyl)amino)pyrimidin-4-yl)amino)pyridin-2-yl)pyrrolidin-2-one] | < 5 | –
< 5 | COc1cc(N2CCN(C)CC2)c(Cl)cc1Nc1ncc(Cl)c(Nc2cccnc2N2CCNC2=O)n1 [Example No. 21, 1-(3-((5-chloro-2-((5-chloro-2-methoxy-4-(4-methylpiperazin-1-yl)phenyl)amino)pyrimidin-4-yl)amino)pyridin-2-yl)imidazolidin-2-one] | < 5 | –
15 to 50 | CC(C)Oc1cc(N2CCN(C)CC2)ccc1Nc1ncc(Cl)c(Nc2cccnc2N(C)C)n1 [compound 4, 5-chloro-N^4-(2-(dimethylamino)pyridin-3-yl)-N^2-(2-isopropoxy-4-(4-methylpiperazin-1-yl)phenyl)pyrimidine-2,4-diamine] | > 50 | –
< 5 | COc1cc(N2CCN(C)CC2)ccc1Nc1ncc(Cl)c(Nc2cccnc2N2CCCC2=O)n1 [compound 2, 1-(3-((5-chloro-2-((2-methoxy-4-(4-methylpiperazin-1-yl)phenyl)amino)pyrimidin-4-yl)amino)pyridin-2-yl)pyrrolidin-2-one] | < 5 | –
< 5 | COc1cc(N2CCN(C)CC2)c(C)cc1Nc1ncc(Cl)c(Nc2cccnc2N2CCNC2=O)n1 [compound 9, 1-(3-((5-chloro-2-((2-methoxy-5-methyl-4-(4-methylpiperazin-1-yl)phenyl)amino)pyrimidin-4-yl)amino)pyridin-2-yl)imidazolidin-2-one] | < 5 | dose dependence of p-STAT5 decrease [3]: showed some dose dependence
5 to 15 | CN1CCN(c2ccc(Nc3ncc(Cl)c(Nc4cccnc4N(C)C)n3)cc2)CC1 [compound 5, 5-chloro-N^4-(2-(dimethylamino)pyridin-3-yl)-N^2-(4-(4-methylpiperazin-1-yl)phenyl)pyrimidine-2,4-diamine] | < 5 | –
< 5 | CN1CCN(c2c(Cl)cc(Nc3ncc(Cl)c(Nc4cccnc4N4CCCC4=O)n3)c3ccccc23)CC1 [Example No. 18, 1-(3-((5-chloro-2-((3-chloro-4-(4-methylpiperazin-1-yl)naphthalen-1-yl)amino)pyrimidin-4-yl)amino)pyridin-2-yl)pyrrolidin-2-one] | < 5 | –
15 to 50 | CCOc1cc(N2CCN(C)CC2)ccc1Nc1ncc(Cl)c(Nc2cccnc2N(C)C)n1 [compound 3, 5-chloro-N^4-(2-(dimethylamino)pyridin-3-yl)-N^2-(2-ethoxy-4-(4-methylpiperazin-1-yl)phenyl)pyrimidine-2,4-diamine] | 5 to 50 | –
< 5 | COc1cc(N2CCN(C)CC2)c(C)cc1Nc1ncc(Br)c(Nc2cccnc2N(C)C)n1 [compound 10, 5-bromo-N^4-(2-(dimethylamino)pyridin-3-yl)-N^2-(2-methoxy-5-methyl-4-(4-methylpiperazin-1-yl)phenyl)pyrimidine-2,4-diamine] | < 5 | dose dependence of p-STAT5 decrease [3]: showed some dose dependence

Structure (SMILES) | IC50 [2] [nM] | IC50 [1] [nM] | further results
COc1cc(N2CCN(C)CC2)c(Cl)cc1Nc1ncc(Cl)c(Nc2cccnc2N2CCCC2=O)n1 [Example No. 13, 1-(3-((5-chloro-2-((5-chloro-2-methoxy-4-(4-methylpiperazin-1-yl)phenyl)amino)pyrimidin-4-yl)amino)pyridin-2-yl)pyrrolidin-2-one] | < 5 | < 5 | tumor growth inhibition ([4]; 10 mg/kg, at Day 21): 35.17%; tumor growth inhibition ([4]; 25 mg/kg, at Day 31): 74.20%; body weight loss ([4]; 50 mg/kg): moderate; animals found dead on Day 7, possibly due to drug toxicity ([4]; 50 mg/kg group (n=10)): Two; tumor growth inhibition ([4]; 50 mg/kg, at Day 31): 86.5%; continued tumor growth inhibition post-dosing ([4]; 25 and 50 mg/kg, dosing stopped on day 21): up to 10 days
